Source: the NIST ThermoML archive (doi:10.1016/j.jct.2005.07.011)

Assay: excess molar enthalpy (molar enthalpy of mixing); xn = mol fraction of the nth substance listed
Conditions: Liquid, Flow calorimetry

CC(C)(C)O [2-methylpropan-2-ol] + COC(=O)OC
excess molar enthalpy [kJ/mol], 1000 kPa
Conditions	298.15 K	328.15 K
x2 = 0.05	0.536	0.521
x2 = 0.1	0.993	0.956
x2 = 0.15	1.38	1.34
x2 = 0.2	1.69	1.67
x2 = 0.25	1.958	1.933
x2 = 0.3	2.16	2.157
x2 = 0.35	2.318	2.325
x2 = 0.4	2.447	2.44
x2 = 0.45	2.523	2.519
x2 = 0.5	2.553	2.545
x2 = 0.55	2.531	2.525
x2 = 0.6	2.458	2.465
x2 = 0.65	2.362	2.353
x2 = 0.7	2.206	2.2
x2 = 0.75	1.982	1.964
x2 = 0.8	1.72	1.72
x2 = 0.9	1.05	1.03
x2 = 0.95	0.562	0.537

CCC(C)O (stereo unspecified) [butan-2-ol] + COC(=O)OC
Conditions	excess molar enthalpy [kJ/mol]
298.15 K, 1000 kPa, x2 = 0.05	0.528
298.15 K, 1000 kPa, x2 = 0.1	0.991
298.15 K, 1000 kPa, x2 = 0.15	1.37
298.15 K, 1000 kPa, x2 = 0.2	1.68
298.15 K, 1000 kPa, x2 = 0.25	1.92
298.15 K, 1000 kPa, x2 = 0.3	2.106
298.15 K, 1000 kPa, x2 = 0.35	2.239
298.15 K, 1000 kPa, x2 = 0.4	2.322
298.15 K, 1000 kPa, x2 = 0.45	2.37
298.15 K, 1000 kPa, x2 = 0.5	2.377
298.15 K, 1000 kPa, x2 = 0.55	2.341
298.15 K, 1000 kPa, x2 = 0.6	2.262
298.15 K, 1000 kPa, x2 = 0.65	2.145
298.15 K, 1000 kPa, x2 = 0.7	1.991
298.15 K, 1000 kPa, x2 = 0.75	1.799
298.15 K, 1000 kPa, x2 = 0.8	1.532
298.15 K, 1000 kPa, x2 = 0.9	0.9005
298.15 K, 1000 kPa, x2 = 0.95	0.4802
313.15 K, 100 kPa, x2 = 0.051	0.517
313.15 K, 100 kPa, x2 = 0.102	0.998
313.15 K, 100 kPa, x2 = 0.148	1.35
313.15 K, 100 kPa, x2 = 0.202	1.72
313.15 K, 100 kPa, x2 = 0.251	1.99
313.15 K, 100 kPa, x2 = 0.352	2.388
313.15 K, 100 kPa, x2 = 0.4	2.513
313.15 K, 100 kPa, x2 = 0.45	2.591
313.15 K, 100 kPa, x2 = 0.501	2.616
313.15 K, 100 kPa, x2 = 0.551	2.599
313.15 K, 100 kPa, x2 = 0.6	2.543
313.15 K, 100 kPa, x2 = 0.649	2.432
313.15 K, 100 kPa, x2 = 0.701	2.265
313.15 K, 100 kPa, x2 = 0.749	2.059
313.15 K, 100 kPa, x2 = 0.799	1.78
313.15 K, 100 kPa, x2 = 0.849	1.44
313.15 K, 100 kPa, x2 = 0.899	1.04
313.15 K, 100 kPa, x2 = 0.951	0.536
313.15 K, 1000 kPa, x2 = 0.051	0.53
313.15 K, 1000 kPa, x2 = 0.098	0.98
313.15 K, 1000 kPa, x2 = 0.149	1.37
313.15 K, 1000 kPa, x2 = 0.198	1.72
313.15 K, 1000 kPa, x2 = 0.251	1.998
313.15 K, 1000 kPa, x2 = 0.348	2.383
313.15 K, 1000 kPa, x2 = 0.4	2.505
313.15 K, 1000 kPa, x2 = 0.451	2.584
313.15 K, 1000 kPa, x2 = 0.501	2.612
313.15 K, 1000 kPa, x2 = 0.551	2.603
313.15 K, 1000 kPa, x2 = 0.6	2.535
313.15 K, 1000 kPa, x2 = 0.649	2.438
313.15 K, 1000 kPa, x2 = 0.701	2.268
313.15 K, 1000 kPa, x2 = 0.749	2.064
313.15 K, 1000 kPa, x2 = 0.799	1.78
313.15 K, 1000 kPa, x2 = 0.85	1.45
313.15 K, 1000 kPa, x2 = 0.899	1.04
313.15 K, 1000 kPa, x2 = 0.951	0.529
313.15 K, 10000 kPa, x2 = 0.051	0.566
313.15 K, 10000 kPa, x2 = 0.1	1.04
313.15 K, 10000 kPa, x2 = 0.15	1.44
313.15 K, 10000 kPa, x2 = 0.2	1.78
313.15 K, 10000 kPa, x2 = 0.25	2.048
313.15 K, 10000 kPa, x2 = 0.301	2.261
313.15 K, 10000 kPa, x2 = 0.35	2.42
313.15 K, 10000 kPa, x2 = 0.399	2.529
313.15 K, 10000 kPa, x2 = 0.451	2.595
313.15 K, 10000 kPa, x2 = 0.501	2.616
313.15 K, 10000 kPa, x2 = 0.551	2.585
313.15 K, 10000 kPa, x2 = 0.599	2.518
313.15 K, 10000 kPa, x2 = 0.65	2.384
313.15 K, 10000 kPa, x2 = 0.751	1.983
313.15 K, 10000 kPa, x2 = 0.801	1.73
313.15 K, 10000 kPa, x2 = 0.851	1.4
313.15 K, 10000 kPa, x2 = 0.901	0.994
313.15 K, 10000 kPa, x2 = 0.949	0.533
328.15 K, 1000 kPa, x2 = 0.05	0.535
328.15 K, 1000 kPa, x2 = 0.1	1.02
328.15 K, 1000 kPa, x2 = 0.15	1.44
328.15 K, 1000 kPa, x2 = 0.201	1.79
328.15 K, 1000 kPa, x2 = 0.25	2.08
328.15 K, 1000 kPa, x2 = 0.302	2.316
328.15 K, 1000 kPa, x2 = 0.352	2.48
328.15 K, 1000 kPa, x2 = 0.402	2.596
328.15 K, 1000 kPa, x2 = 0.45	2.667
328.15 K, 1000 kPa, x2 = 0.502	2.693
328.15 K, 1000 kPa, x2 = 0.551	2.661
328.15 K, 1000 kPa, x2 = 0.603	2.583
328.15 K, 1000 kPa, x2 = 0.653	2.47
328.15 K, 1000 kPa, x2 = 0.7	2.309
328.15 K, 1000 kPa, x2 = 0.751	2.075
328.15 K, 1000 kPa, x2 = 0.802	1.79
328.15 K, 1000 kPa, x2 = 0.9	1.057
328.15 K, 1000 kPa, x2 = 0.95	0.5627
